What was measured:
[1] = system: AE9a-driven AML cell line; assay: Growth and apoptosis of AE9a cells (trypan blue, annexin V/7AAD); assay type: cell-based, mouse; conditions: for Apoptosis, annexin V/7AAD double staining: 24 hr
From the text: (§1) Previously, we reported that the leukemogenicity of the AML1-ETO fusion protein, generated by a t(8;21) translocation in acute myelogenous leukemia, is regulated by p300-mediated acetylation of lysine 43 of the fusion protein ([Wang et al., 2011]).
(§2) Figure 4. […] (B) Kasumi-1 and AE9a cells treated or not with salicylate were counted by trypan-blue exclusion under light microscopy. […] The percentage of sub-G1 cells is shown. […] Cells were counted by trypan-blue exclusion under light microscopy. […] DOI: http://dx.doi.org/10.7554/eLife.11156.011
(§3) HEK293T cells (ATCC) were maintained in DMEM supplemented with 10% FCS. The viability of Kasumi-1 cells and AE9a mouse leukemia cells was assessed in triplicate by trypan blue exclusion. The Kasumi cell line was isolated and characterized by one of the coauthors (S. Nimer) ([Becker et al., 2008]). All cell lines were tested annually for mycoplasma contamination. Only negative mycoplasma cultures were used during the conduct of these experiments.
(§4) Apoptosis was analyzed with an Annexin V-APC/7AAD Apoptosis kit (Becton-Dickinson) according to manufacturer’s instructions. To assess the distribution of nuclear DNA content in the cell-cycle analysis, cells were collected, washed in PBS, fixed overnight in 75% ethanol at –20°C, treated with 1% RNase A for at least 15 min at 37°C, and stained with […] propidium iodide. To monitor CD34 expression, the cells were stained with an allophycocyanin-conjugated anti-CD34 antibody (Becton Dickinson). To monitor CD11b expression, the cells were stained with a phycoerythrin-conjugated anti-CD11b antibody (Beckman-Coulter). To monitor C-kit and Mac-1 expression, the cells were stained with allophycocyanin-conjugated anti-C-kit and phycoerythrin-conjugated anti-Mac-1 antibodies (Becton-Dickinson). Cells were sorted with a Becton-Dickinson FACSCalibur, and the data were analyzed with FlowJo software.

Kasumi-1 cells [2] = assay: Kasumi-1 xenograft model in SCID mice; assay type: in vivo
Experimental: Figure 5. […] (A) and (B) Plots of tumor volume (A) and body weight (B). (C) and (D) Tumor size (C) and body weight (D) at sacrifice after 3 weeks of treatment. DOI: http://dx.doi.org/10.7554/eLife.11156.012
Severe combined immunodeficiency (SCID) mice were injected with 30 million Kasumi-1 cells in 100 μl of PBS and 100 μl of Matrigel. […] Tumor volume and body weight were recorded every 2 days. After 3 weeks of treatment, the mice were killed and tumor size and body weight were recorded. All mice were maintained according to National Institutes of Health guidelines and all animal use protocols were approved by the Institutional Animal Care and Use Committee.

AML1-ETO fusion protein = assay: AML1-ETO K24/K43 acetylation in Kasumi-1 cells (immunoprecipitation, Western blot); assay type: cell-based, human; conditions: Kasumi-1, 24 hr; salicylate 4 or 8 mM, diflunisal 100 or 200 μM
From the text: as §1, §2
AML1-ETO protein in the lysate was immunoprecipitated with an anti-ETO antibody (Santa Cruz Biotechnology). Antibodies against AML1 and acetylated AML1-ETO K24/K43 (generated in the Nimer lab) were used for Western blotting.

Kasumi-1 cells [3] = assay: Growth and apoptosis of Kasumi-1 cells (trypan blue, annexin V/7AAD); assay type: cell-based, human; conditions: for Apoptosis, annexin V/7AAD double staining: Kasumi-1, 24 hr
From the text: as §1, §2, §3, §4

GCN5 = molecular target: T1, GCN5 (Homo sapiens, UniProt Q92830); assay: In vitro HAT assay with recombinant GCN5, histones and 14C acetyl-CoA; assay type: biochemical
T1 construct: purchased Enzo Life Sciences
Experimental: (§5) To determine whether salicylate inhibits p300 and other acetyltransferases, we used in vitro acetylation assays with purified histones and a recombinant p300 catalytic domain.
(§6) Figure 1. Salicylate inhibits CBP/p300 in vitro. (A) Recombinant p300, CBP, GCN5, or PCAF and histones were incubated with ^14C-labeled acetyl-CoA with or without sodium salicylate, separated by SDS-PAGE, analyzed by autoradiography, and quantified with Image J software. Acetylation levels are relative to those in untreated controls. (B) Thermal stability assay for sodium salicylate binding to the p300 HAT domain. Tm, melting temperature. […] Histone acetylation was measured with several concentrations of acetyl-CoA (C) or histone (D) in the presence or absence of sodium salicylate. […] Acetylation of an H4(3–14) peptide was monitored using direct microfluidic mobility shift analysis as previously described ([Montgomery et al., 2014]; [Fanslau et al., 2010]). […]
(§7) Recombinant HAT ([…]), either p300, CBP, PCAF, or GCN5 (Enzo Life Sciences), and 10 µg of histones (Sigma) were incubated with sodium salicylate (Sigma) in reaction buffer (50 mM HEPES, pH 8.0, 10% glycerol, 1 mM) at 30°C for 30 min and then with 0.1 mCi of ^14C acetyl-CoA at 30°C for 60 min. Reactions were stopped by adding 6x sample buffer and analyzed by SDS-PAGE. […]

CBP = molecular target: T2, CBP (Homo sapiens, UniProt Q92793); assay: In vitro HAT assay with recombinant CBP, histones and 14C acetyl-CoA; assay type: biochemical; conditions: read-out: IC50, CBP-mediated acetyltransferase activity
T2 construct: purchased Enzo Life Sciences
Experimental: as §5, §6, §7

acetyl NF-κBK310 = assay: Acetylation of overexpressed NF-κB p65 in HEK293T cells, Western blot; assay type: cell-based; conditions: HEK293T transfected with p300 and NF-κB p65, 24 hr
From the text: Figure 2.

PCAF = molecular target: T3, PCAF (Homo sapiens, UniProt Q92831); assay: In vitro HAT assay with recombinant PCAF, histones and 14C acetyl-CoA; assay type: biochemical
T3 construct: purchased Enzo Life Sciences
Experimental: as §5, §6, §7

[4] = 50 or 100 mg/kg orally, daily, 3 weeks

T3 sequence (Q92831 whole entry, species assumed): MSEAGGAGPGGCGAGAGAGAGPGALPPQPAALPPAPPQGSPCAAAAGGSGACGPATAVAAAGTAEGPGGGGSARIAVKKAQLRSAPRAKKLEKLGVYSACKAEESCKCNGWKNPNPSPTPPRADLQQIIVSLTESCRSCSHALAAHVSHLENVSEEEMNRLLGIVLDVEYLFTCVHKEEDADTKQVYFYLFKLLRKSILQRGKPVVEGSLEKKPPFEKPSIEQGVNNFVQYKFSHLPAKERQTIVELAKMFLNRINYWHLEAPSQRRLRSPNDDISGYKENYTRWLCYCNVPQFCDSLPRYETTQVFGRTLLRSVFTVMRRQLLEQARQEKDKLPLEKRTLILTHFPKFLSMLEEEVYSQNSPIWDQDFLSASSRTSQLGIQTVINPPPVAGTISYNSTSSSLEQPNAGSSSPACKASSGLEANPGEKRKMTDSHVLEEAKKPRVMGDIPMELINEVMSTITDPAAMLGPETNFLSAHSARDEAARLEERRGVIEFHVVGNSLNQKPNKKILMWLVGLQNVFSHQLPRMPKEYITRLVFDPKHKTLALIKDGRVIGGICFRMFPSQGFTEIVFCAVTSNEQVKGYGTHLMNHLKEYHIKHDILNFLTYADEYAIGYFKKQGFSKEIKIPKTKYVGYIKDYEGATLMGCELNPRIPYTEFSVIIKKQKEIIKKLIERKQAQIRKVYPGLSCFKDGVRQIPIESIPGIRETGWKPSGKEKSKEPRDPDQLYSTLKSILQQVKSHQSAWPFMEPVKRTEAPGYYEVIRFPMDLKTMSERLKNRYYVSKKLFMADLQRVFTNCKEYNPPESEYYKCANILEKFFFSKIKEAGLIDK
T2 sequence (Q92793 whole entry): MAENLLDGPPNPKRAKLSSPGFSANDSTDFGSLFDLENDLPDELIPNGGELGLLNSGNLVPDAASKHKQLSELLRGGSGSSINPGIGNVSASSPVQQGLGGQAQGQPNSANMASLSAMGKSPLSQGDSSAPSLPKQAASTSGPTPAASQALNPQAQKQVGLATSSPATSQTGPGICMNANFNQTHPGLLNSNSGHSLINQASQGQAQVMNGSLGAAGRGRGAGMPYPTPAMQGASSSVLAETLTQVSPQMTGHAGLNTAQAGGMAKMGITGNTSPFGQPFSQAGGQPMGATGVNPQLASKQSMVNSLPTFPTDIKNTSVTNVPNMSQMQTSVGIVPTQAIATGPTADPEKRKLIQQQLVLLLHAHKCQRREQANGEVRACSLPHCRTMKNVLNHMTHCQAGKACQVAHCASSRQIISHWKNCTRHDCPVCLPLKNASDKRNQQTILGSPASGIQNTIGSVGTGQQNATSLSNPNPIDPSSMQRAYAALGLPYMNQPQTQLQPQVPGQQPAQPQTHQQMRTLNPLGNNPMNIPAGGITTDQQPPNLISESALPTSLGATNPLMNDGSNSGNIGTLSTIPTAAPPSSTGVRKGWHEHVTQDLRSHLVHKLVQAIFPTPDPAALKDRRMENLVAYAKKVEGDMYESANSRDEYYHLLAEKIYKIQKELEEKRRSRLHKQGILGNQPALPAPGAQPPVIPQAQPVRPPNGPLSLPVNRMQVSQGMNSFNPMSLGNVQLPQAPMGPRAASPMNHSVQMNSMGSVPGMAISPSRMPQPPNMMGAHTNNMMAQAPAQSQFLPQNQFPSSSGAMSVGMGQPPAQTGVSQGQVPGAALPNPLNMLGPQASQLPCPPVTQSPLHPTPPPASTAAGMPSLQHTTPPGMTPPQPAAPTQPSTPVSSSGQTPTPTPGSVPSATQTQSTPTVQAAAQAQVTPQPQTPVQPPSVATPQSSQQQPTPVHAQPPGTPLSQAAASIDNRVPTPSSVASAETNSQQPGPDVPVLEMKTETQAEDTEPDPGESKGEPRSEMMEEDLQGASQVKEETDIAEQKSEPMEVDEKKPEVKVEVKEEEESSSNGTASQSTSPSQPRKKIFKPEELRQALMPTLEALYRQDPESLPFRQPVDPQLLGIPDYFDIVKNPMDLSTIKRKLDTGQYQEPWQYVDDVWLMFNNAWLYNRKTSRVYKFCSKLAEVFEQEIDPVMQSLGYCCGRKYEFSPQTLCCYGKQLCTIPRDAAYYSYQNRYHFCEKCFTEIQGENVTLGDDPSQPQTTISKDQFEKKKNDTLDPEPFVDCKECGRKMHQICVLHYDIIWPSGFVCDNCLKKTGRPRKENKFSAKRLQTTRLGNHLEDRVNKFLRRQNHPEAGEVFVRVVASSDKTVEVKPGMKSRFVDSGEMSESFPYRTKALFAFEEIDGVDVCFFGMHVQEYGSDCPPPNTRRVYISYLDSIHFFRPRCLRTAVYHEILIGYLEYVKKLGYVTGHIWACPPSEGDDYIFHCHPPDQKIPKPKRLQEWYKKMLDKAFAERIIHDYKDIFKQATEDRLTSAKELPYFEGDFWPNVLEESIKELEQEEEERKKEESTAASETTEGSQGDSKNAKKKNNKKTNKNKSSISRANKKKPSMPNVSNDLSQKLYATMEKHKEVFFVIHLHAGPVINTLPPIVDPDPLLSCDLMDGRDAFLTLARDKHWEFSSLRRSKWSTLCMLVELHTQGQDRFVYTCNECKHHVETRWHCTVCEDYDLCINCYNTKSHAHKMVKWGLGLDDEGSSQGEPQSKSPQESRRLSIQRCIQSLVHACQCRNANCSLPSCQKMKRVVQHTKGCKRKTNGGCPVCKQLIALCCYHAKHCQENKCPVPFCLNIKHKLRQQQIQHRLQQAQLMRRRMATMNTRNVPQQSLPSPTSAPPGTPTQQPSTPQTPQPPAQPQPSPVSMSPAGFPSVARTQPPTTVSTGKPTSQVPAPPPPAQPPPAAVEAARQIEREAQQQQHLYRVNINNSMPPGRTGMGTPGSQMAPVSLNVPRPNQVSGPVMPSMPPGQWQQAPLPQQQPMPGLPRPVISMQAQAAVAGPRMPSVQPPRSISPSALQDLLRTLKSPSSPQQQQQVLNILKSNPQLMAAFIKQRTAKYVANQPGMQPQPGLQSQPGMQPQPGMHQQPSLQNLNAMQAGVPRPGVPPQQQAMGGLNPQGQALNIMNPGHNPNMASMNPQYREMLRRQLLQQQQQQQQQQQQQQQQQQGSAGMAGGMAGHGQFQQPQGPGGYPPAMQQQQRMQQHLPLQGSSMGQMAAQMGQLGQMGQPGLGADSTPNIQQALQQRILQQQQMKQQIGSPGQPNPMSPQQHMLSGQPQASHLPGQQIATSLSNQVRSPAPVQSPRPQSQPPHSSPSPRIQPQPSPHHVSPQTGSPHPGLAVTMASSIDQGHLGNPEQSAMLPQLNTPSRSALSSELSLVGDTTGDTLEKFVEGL
T1 sequence (Q92830 whole entry, species assumed): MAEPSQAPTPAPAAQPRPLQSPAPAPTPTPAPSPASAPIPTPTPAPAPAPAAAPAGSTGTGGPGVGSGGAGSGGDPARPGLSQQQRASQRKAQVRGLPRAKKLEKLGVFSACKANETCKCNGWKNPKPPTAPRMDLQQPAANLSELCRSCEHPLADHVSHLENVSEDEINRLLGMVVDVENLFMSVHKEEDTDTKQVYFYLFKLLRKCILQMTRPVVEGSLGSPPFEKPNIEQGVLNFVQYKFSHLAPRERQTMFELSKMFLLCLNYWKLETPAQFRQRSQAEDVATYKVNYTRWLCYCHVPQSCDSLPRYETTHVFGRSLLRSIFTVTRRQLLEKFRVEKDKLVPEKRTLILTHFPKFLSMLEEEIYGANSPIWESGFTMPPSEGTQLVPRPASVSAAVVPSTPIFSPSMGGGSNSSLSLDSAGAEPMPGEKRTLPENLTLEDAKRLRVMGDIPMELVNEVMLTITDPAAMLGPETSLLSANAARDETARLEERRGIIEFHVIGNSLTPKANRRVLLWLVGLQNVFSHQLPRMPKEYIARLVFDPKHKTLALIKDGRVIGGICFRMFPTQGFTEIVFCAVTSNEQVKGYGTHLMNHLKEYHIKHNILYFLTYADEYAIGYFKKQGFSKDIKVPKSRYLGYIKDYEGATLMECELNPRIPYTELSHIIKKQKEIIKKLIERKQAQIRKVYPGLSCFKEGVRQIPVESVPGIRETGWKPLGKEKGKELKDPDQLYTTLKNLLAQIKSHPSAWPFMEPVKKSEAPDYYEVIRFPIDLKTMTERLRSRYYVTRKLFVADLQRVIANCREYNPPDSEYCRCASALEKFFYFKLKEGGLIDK

O=C(O)c1cc(-c2ccc(F)cc2F)ccc1O [diflunisal]
Apoptosis, annexin V/7AAD double staining [1]: increased apoptosis in a dose-dependent manner | Effect on body weight (Kasumi-1 cells [2]; [4]): minimal effects on body weight | Tumor volume (Kasumi-1 cells [2]; [4]): reduced tumor volumes in a dose-dependent manner | Tumor size versus vehicle-treated controls (Kasumi-1 cells [2]; after 3 weeks of treatment): significantly smaller | Tumors at sacrifice (Kasumi-1 cells [2]; higher dose (100 mg/kg), after 3 weeks of treatment): most of the tumors had disappeared | K24 and K43 acetylation of AML1-ETO (AML1-ETO fusion protein): decreased in a dose-dependent manner | Apoptosis, annexin V/7AAD double staining (Kasumi-1 cells [3]): increased apoptosis in a dose-dependent manner | Kasumi-1 cell growth (Kasumi-1 cells [3]; trypan-blue exclusion counts): inhibition of growth

O=C(O)c1ccccc1O [salicylate, salicylic acid]
Apoptosis, annexin V/7AAD double staining [1]: increased apoptosis | Concentration inhibiting cell proliferation ([1]; trypan-blue exclusion counts): ≥ 1 mM | Inhibition of GCN5 acetyltransferase (GCN5): did not detectably inhibit | K24 and K43 acetylation of AML1-ETO (AML1-ETO fusion protein): decreased in a dose-dependent manner | IC50 (CBP): 5.7 mM | Acetylation of NF-κB p65 K310 (acetyl NF-κBK310): decreased acetylation | Apoptosis, annexin V/7AAD double staining (Kasumi-1 cells [3]): increased apoptosis | Concentration inhibiting cell proliferation (Kasumi-1 cells [3]; Kasumi-1, trypan-blue exclusion counts): ≥ 1 mM | Inhibition of PCAF acetyltransferase (PCAF): did not detectably inhibit
